Test results as given in patent US11807644B2 (PMV Pharmaceuticals, Inc., priority 2020, dated 2023).

Each molecule was assayed against T1, recombinant His-tag Y220C p53 DBD protein (Homo sapiens, UniProt P04637, Y220C) (assay: In vitro DNA binding activity assay (TR-FRET): binding of His-tag Y220C p53 DBD to biotin-labeled consensus DNA). Conditions: SC150 = concentration to increase DNA binding by […], His-tag Y220C p53 DBD, biotin-labeled consensus DNA.
T1 construct: recombinant His-tag Y220C p53 DBD protein (amino acids #˜94-312)
Assay type: biochemical
`CN1CCC(Nc2cccc3c2cc(-c2nnc(CNC(=O)c4ccn(C)c4)s2)n3CC(F)(F)F)CC1` [Compound 77B, 1-methyl-N-[(5-{4-[(1-methylpiperidin-4-yl)amino]-1-(2,2,2-trifluoroethyl)-1H-indol-2-yl}-1,3,4-thiadiazol-2-yl)methyl]-1H-pyrrole-3-carboxamide] was tested, and the “Y220C SC150 (μM)” value was “* (* = 0 μM ≤ SC150 < 0.1 μM)”. With `CCN1CC[C@@H](Nc2cccc3c2cc(-c2noc(CNC(=O)c4cnn(C(C)(C)C)c4)n2)n3CC(F)(F)F)[C@@H](F)C1` [Compound 304B, 1-tert-butyl-N-{[3-(4-{[(3S,4R)-1-ethyl-3-fluoropiperidin-4-yl]amino}-1-(2,2,2-trifluoroethyl)-1H-indol-2-yl)-1,2,4-oxadiazol-5-yl]methyl}-1H-pyrazole-4-carboxamide] the “Y220C SC150 (μM)” value was “* (* = 0 μM ≤ SC150 < 0.1 μM)”. `C[C@@H]1C[C@H]1C(=O)NCc1nc(-c2cc3c(NC4CCN(C)CC4)cccc3n2CC(F)(F)F)no1` (racemic) [Compound 157B, (+/−)-(1R,2R)-2-methyl-N-[(3-{4-[(1-methylpiperidin-4-yl)amino]-1-(2,2,2-trifluoroethyl)-1H-indol-2-yl}-1,2,4-oxadiazol-5-yl)methyl]cyclopropane-1-carboxamide] was tested, and the “Y220C SC150 (μM)” value was “* (* = 0 μM ≤ SC150 < 0.1 μM)”. `CN1CC[C@@H](Nc2cccc3c2cc(-c2noc(CNc4ccn(C(C)(C)C)n4)n2)n3CC(F)(F)F)[C@@H](F)C1` [Compound 390B, 2-(5-{[(1-tert-butyl-1H-pyrazol-3-yl)amino]methyl}-1,2,4-oxadiazol-3-yl)-N-[(3S,4R)-3-fluoro-1-methylpiperidin-4-yl]-1-(2,2,2-trifluoroethyl)-1H-indol-4-amine] was tested, and the “Y220C SC150 (μM)” value was “* (* = 0 μM ≤ SC150 < 0.1 μM)”. In the case of `CC(C)c1cc(C(=O)NCc2nc(-c3cc4c(N[C@@H]5CCN(C)C[C@@H]5F)cccc4n3CC(F)(F)F)no2)co1` [Compound 526B, N-{[3-(4-{[(3S,4R)-3-fluoro-1-methylpiperidin-4-yl]amino}-1-(2,2,2-trifluoroethyl)-1H-indol-2-yl)-1,2,4-oxadiazol-5-yl]methyl}-5-(propan-2-yl)furan-3-carboxamide], the “Y220C SC150 (μM)” value is reported as “* (* = 0 μM ≤ SC150 < 0.1 μM)”. With `CCC(C)(C)n1ccc(C(=O)NCc2nc(-c3cc4c(N[C@@H]5CCN(C)C[C@@H]5F)cccc4n3CC(F)(F)F)no2)c1` [Compound 427B, N-{[3-(4-{[(3S,4R)-3-fluoro-1-methylpiperidin-4-yl]amino}-1-(2,2,2-trifluoroethyl)-1H-indol-2-yl)-1,2,4-oxadiazol-5-yl]methyl}-1-(2-methylbutan-2-yl)-1H-pyrrole-3-carboxamide] the “Y220C SC150 (μM)” value was “* (* = 0 μM ≤ SC150 < 0.1 μM)”. In the case of `CN1CCC(Nc2cccc3c2cc(-c2noc(CNC(=O)c4cnn(C)c4)n2)n3CC(F)(F)F)CC1` [Compound 154B, 1-methyl-N-[(3-{4-[(1-methylpiperidin-4-yl)amino]-1-(2,2,2-trifluoroethyl)-1H-indol-2-yl}-1,2,4-oxadiazol-5-yl)methyl]-1H-pyrazole-4-carboxamide], the “Y220C SC150 (μM)” value is reported as “* (* = 0 μM ≤ SC150 < 0.1 μM)”. In the case of `CN1CC[C@@H](Nc2cccc3c2cc(-c2ccc(CNC(=O)C4CC4)s2)n3CC(F)(F)F)[C@@H](F)C1` (racemic) [Compound 103B, (+/−)-N-{[5-(4-{[(3R,4S)-3-fluoro-1-methylpiperidin-4-yl]amino}-1-(2,2,2-trifluoroethyl)-1H-indol-2-yl)thiophen-2-yl]methyl}cyclopropanecarboxamide], the “Y220C SC150 (μM)” value is reported as “* (* = 0 μM ≤ SC150 < 0.1 μM)”. With `CN1CC[C@@H](Nc2cccc3c2cc(-c2noc(CNC(=O)[C@@H]4C[C@H]4c4cnn(C)c4)n2)n3CC(F)(F)F)[C@@H](F)C1` [Compound 225B, (1R,2R)-N-{[3-(4-{[(3S,4R)-3-fluoro-1-methylpiperidin-4-yl]amino}-1-(2,2,2-trifluoroethyl)-1H-indol-2-yl)-1,2,4-oxadiazol-5-yl]methyl}-2-(1-methyl-1H-pyrazol-4-yl)cyclopropane-1-carboxamide] the “Y220C SC150 (μM)” value was “* (* = 0 μM ≤ SC150 < 0.1 μM)”. `CN1CCC(Nc2cccc3c2cc(-c2nnc(CNc4ccccc4)o2)n3CC(F)(F)F)CC1` [Compound 108B, N-(1-methylpiperidin-4-yl)-2-{5-[(phenylamino)methyl]-1,3,4-oxadiazol-2-yl}-1-(2,2,2-trifluoroethyl)-1H-indol-4-amine] was tested, and the “Y220C SC150 (μM)” value was “** (** = 0.1 μM ≤ SC150 < 0.5 μM)”. In the case of `CN1CC[C@@H](Nc2cccc3c2cc(-c2noc(CNC(=O)c4cnc(C5(C)CCOCC5)s4)n2)n3CC(F)(F)F)[C@@H](F)C1` [Compound 473B, N-{[3-(4-{[(3S,4R)-3-fluoro-1-methylpiperidin-4-yl]amino}-1-(2,2,2-trifluoroethyl)-1H-indol-2-yl)-1,2,4-oxadiazol-5-yl]methyl}-2-(4-methyloxan-4-yl)-1,3-thiazole-5-carboxamide], the “Y220C SC150 (μM)” value is reported as “* (* = 0 μM ≤ SC150 < 0.1 μM)”. For `COCC(=O)NCc1nnc(-c2cc3c(NC4CCN(C)CC4)cccc3n2CC(F)(F)F)s1` [Compound 60B, 2-methoxy-N-[(5-{4-[(1-methylpiperidin-4-yl)amino]-1-(2,2,2-trifluoroethyl)-1H-indol-2-yl}-1,3,4-thiadiazol-2-yl)methyl]acetamide], the “Y220C SC150 (μM)” value was “** (** = 0.1 μM ≤ SC150 < 0.5 μM)”. For `COc1cc(S(C)(=O)=O)ccc1NCc1nnc(-c2cc3c(N[C@@H]4CCN(C)C[C@@H]4F)cccc3n2CC(F)(F)F)s1` [Compound 62B, N-[(3S,4R)-3-fluoro-1-methylpiperidin-4-yl]-2-(5-{[(4-methanesulfonyl-2-methoxyphenyl)amino]methyl}-1,3,4-thiadiazol-2-yl)-1-(2,2,2-trifluoroethyl)-1H-indol-4-amine], the “Y220C SC150 (μM)” value was “* (* = 0 μM ≤ SC150 < 0.1 μM)”. `CN1CC[C@@H](Nc2cccc3c2cc(-c2noc(CNC(=O)[C@H]4C[C@@H]4c4ccccc4)n2)n3CC(F)(F)F)[C@@H](F)C1` (racemic) [Compound 180B, (+/−)-(1R,2R)-N-{[3-(4-{[(3R,4S)-3-fluoro-1-methylpiperidin-4-yl]amino}-1-(2,2,2-trifluoroethyl)-1H-indol-2-yl)-1,2,4-oxadiazol-5-yl]methyl}-2-phenylcyclopropane-1-carboxamide] was tested, and the “Y220C SC150 (μM)” value was “* (* = 0 μM ≤ SC150 < 0.1 μM)”. With `CN1CC[C@@H](Nc2cccc3c2cc(-c2noc(CNC(=O)c4ccn(C5(C)COC5)c4)n2)n3CC(F)(F)F)[C@@H](F)C1` [Compound 386B, N-{[3-(4-{[(3S,4R)-3-fluoro-1-methylpiperidin-4-yl]amino}-1-(2,2,2-trifluoroethyl)-1H-indol-2-yl)-1,2,4-oxadiazol-5-yl]methyl}-1-(3-methyloxetan-3-yl)-1H-pyrrole-3-carboxamide] the “Y220C SC150 (μM)” value was “* (* = 0 μM ≤ SC150 < 0.1 μM)”. In the case of `CN1CC[C@@H](Nc2cccc3c2cc(-c2ccc(CNC(=O)c4cnn(C(C)(C)C)c4)cn2)n3CC(F)(F)F)[C@@H](F)C1` [Compound 285B, 1-tert-butyl-N-{[6-(4-{[(3S,4R)-3-fluoro-1-methylpiperidin-4-yl]amino}-1-(2,2,2-trifluoroethyl)-1H-indol-2-yl)pyridin-3-yl]methyl}-1H-pyrazole-4-carboxamide], the “Y220C SC150 (μM)” value is reported as “** (** = 0.1 μM ≤ SC150 < 0.5 μM)”. For `CN1CC[C@@H](Nc2cccc3c2cc(-c2noc(CNC(=O)c4cnc(C(C)(C)C)o4)n2)n3CC(F)(F)F)[C@@H](F)C1` [Compound 443B, 2-tert-butyl-N-{[3-(4-{[(3S,4R)-3-fluoro-1-methylpiperidin-4-yl]amino}-1-(2,2,2-trifluoroethyl)-1H-indol-2-yl)-1,2,4-oxadiazol-5-yl]methyl}-1,3-oxazole-5-carboxamide], the “Y220C SC150 (μM)” value was “* (* = 0 μM ≤ SC150 < 0.1 μM)”. With `CN1CC[C@@H](Nc2cccc3c2cc(-c2nc(CNC(=O)c4cccs4)no2)n3CC(F)(F)F)[C@@H](F)C1` (racemic) [Compound 277B, (+/−)-N-{[5-(4-{[(3R,4S)-3-fluoro-1-methylpiperidin-4-yl]amino}-1-(2,2,2-trifluoroethyl)-1H-indol-2-yl)-1,2,4-oxadiazol-3-yl]methyl}thiophene-2-carboxamide] the “Y220C SC150 (μM)” value was “* (* = 0 μM ≤ SC150 < 0.1 μM)”. With `CN1CC[C@@H](Nc2cccc3c2cc(-c2noc(CNC(=O)c4csc(C(C)(C)CO)n4)n2)n3CC(F)(F)F)[C@@H](F)C1` [Compound 532B, N-{[3-(4-{[(3S,4R)-3-fluoro-1-methylpiperidin-4-yl]amino}-1-(2,2,2-trifluoroethyl)-1H-indol-2-yl)-1,2,4-oxadiazol-5-yl]methyl}-2-(1-hydroxy-2-methylpropan-2-yl)-1,3-thiazole-4-carboxamide] the “Y220C SC150 (μM)” value was “* (* = 0 μM ≤ SC150 < 0.1 μM)”. For `CN1CC[C@@H](Nc2cccc3c2cc(-c2noc(CNC(=O)c4cccs4)n2)n3CC(F)(F)F)[C@@H](F)C1` (racemic) [Compound 175B, (+/−)-N-{[3-(4-{[(3R,4S)-3-fluoro-1-methylpiperidin-4-yl]amino}-1-(2,2,2-trifluoroethyl)-1H-indol-2-yl)-1,2,4-oxadiazol-5-yl]methyl}thiophene-2-carboxamide], the “Y220C SC150 (μM)” value was “* (* = 0 μM ≤ SC150 < 0.1 μM)”. With `CO[C@H]1CCC[C@@H]1n1ccc(C(=O)NCc2nc(-c3cc4c(N[C@@H]5CCN(C)C[C@@H]5F)cccc4n3CC(F)(F)F)no2)c1` (relative stereo) [Compound 355B] the “Y220C SC150 (μM)” value was “* (* = 0 μM ≤ SC150 < 0.1 μM)”. In the case of `COc1ccccc1C(=O)NCc1nnc(-c2cc3c(N[C@H]4CCN(C)C[C@H]4F)cccc3n2CC(F)(F)F)o1` (racemic) [Compound 115B, (+/−)-N-{[5-(4-{[(3R,4S)-3-fluoro-1-methylpiperidin-4-yl]amino}-1-(2,2,2-trifluoroethyl)-1H-indol-2-yl)-1,3,4-oxadiazol-2-yl]methyl}-2-methoxybenzamide], the “Y220C SC150 (μM)” value is reported as “** (** = 0.1 μM ≤ SC150 < 0.5 μM)”.

Same assay, conditions: concentration to increase DNA binding by […], incubated at either 27° C. or 29° C. for 60 min
With `O=C(NCc1ccc(-c2cc3c(NC4CCS(=O)(=O)CC4)cccc3n2CC(F)(F)F)cc1)Nc1ccccc1` [Compound 19A, 3-[(4-{4-[(1,1-dioxo-1λ^6-thian-4-yl)amino]-1-(2,2,2-trifluoroethyl)-1H-indol-2-yl}phenyl)methyl]-1-phenylurea] the “SC150 (μM)” value was “+ (+ = 0 μM ≤ SC150 < 2 μM)”.
